Values joined by “and” are separate entries in the source; they are usually repeats but may differ in a detail not shown here. Equal values may be shown once. “Also recorded” adds a separate entry of the source. Read-outs that look alike come from different tables or passages of the source.
Experiments:
Format in all cases: cell-based, human
HEK293T cells [1] = test system: HEK293T cells
HEK293T cells [2] = test system: HEK293T cells; remark: listed apart in the source
HEK293T cells [3] = details: single agent, FIG. 2; for concentration giving optimum vector production: induction 24 h post transfection
HEK1.65s cells [4] = details: for inducing effect on LV titre among HDAC inhibitors: HEK1.65s, 24-well plate, FIG. 7, sodium valproate at 3 mM, valeric acid at 10 mM
HEK1.65s cells [5] = experiment: Example 3 Experiment 2: sodium butyrate x prostratin DOE in suspension HEK1.65s, 24-well plate, GFP titration and JMP model; details: for optimum predicted concentration of combined induction agents: prediction profiler, FIG. 9C
HEK1.65s cells [6] = experiment: Example 3: cell viability measurements of induced HEK1.65s cells (Table 6); details: for Cell Viability (%): HEK1.65s; for Δ (cell viability vs No Induction Control): vs no induction control 78.8
HEK1.65s cells [7] = details: 11 μM prostratin + 8 mM sodium butyrate, 40 mL shake flask; FACS and integration QPCR, FIGS. 10A & B
HEK1.65s cells [8] = experiment: Example 4: 40 mL shake flask vector production, titre by duplex QPCR integration assay; details: VRC vs VRC+55 nM prostratin, FIG. 10B
[9] = test system: HEK293T.1-65s suspension cells
HEK1.65s cells [10] = test system: HEK1.65s cells
HEK1.65s cells [11] = test system: HEK1.65s cells; remark: listed apart in the source
[12] = test system: suspension (serum-free) HEK293T cells; experiment: Example 8: GFP reporter expression from constitutive promoters in suspension HEK293T with or without prostratin, flow cytometry; details: 11 μM prostratin with 10 mM sodium butyrate, two pDNA input levels, FIG. 18
HEK293T cells [13] = experiment: FIG. 13/14: standard or MSD-mutated lentiviral vector production in HEK293T with modified U1 snRNA, titration and RT-PCR of aberrant splice product; details: modified U1 snRNA co-expressed during production of standard and MSD-mutated LVs
[14] = 11 μM prostratin with 10 mM sodium butyrate
[15] = 256U1 snRNA expression combined with 11 μM prostratin at induction
[16] = single titre enhancing agent (256U1 expression or 11 μM prostratin), 10 mM sodium butyrate

Molecule: CC(=O)NCCCCCCNC(C)=O [HMBA]
- titre relative to the no-induction control (HEK293T cells [1]): approximately 4 fold
- effect on titre of combination with HDAC inhibitors (HEK293T cells [1]; compared with HDAC inhibitor alone): no or only marginal improvements in titres; also recorded: did not produce any positive effects on titre
- optimum concentration for vector induction (HEK293T cells [1]; single agent, FIG. 4): 16 mM
- effect on titre in combination with prostratin and sodium butyrate (HEK293T cells [2]; 8 mM HMBA, compared to conditions where HMBA was excluded): notable decrease
- effect on titre in combination with alternate HDAC inhibitors (HEK293T cells [2]; with sodium valproate, valeric acid or SAHA, FIG. 6): negative effects on titre

Molecule: CC(=O)N[C@@H](CS)C(=O)O [NAC, N-Acetyl Cysteine]
- effect on vector titre (HEK293T cells [3]): no positive impact on titre

Molecule: CCCCCCCCCCCCCC(=O)O[C@@H]1[C@@H](C)[C@@]2(O)[C@@H](C=C(CO)C[C@]3(O)C(=O)C(C)=C[C@@H]23)[C@@H]2C(C)(C)[C@]12OC(C)=O [PMA, Phorbol 12-myristate 13-acetate]
- effect on vector titre (HEK293T cells [3]): highest vector induction
- optimum concentration for vector induction (HEK293T cells [1]): 3.2e-05 mM
- titre relative to the no-induction control (HEK293T cells [1]): approximately 4 fold

Molecule: O=C(CCCCCCC(=O)Nc1ccccc1)NO [SAHA, suberanilohydroxamic acid]
- concentration giving optimum vector production (HEK293T cells [3]): 0.0025 mM
- optimum concentration for vector induction (HEK293T cells [1]; single agent, FIG. 4): 0.001 mM

Molecule: CC(/C=C/C(=O)NO)=C\[C@@H](C)C(=O)c1ccc(N(C)C)cc1 [TSA]
- effect on vector titre (HEK293T cells [3]): failed to improve vector titres

Molecule: O=C(OC[C@H]1O[C@@H](OC(=O)c2cc(O)c(O)c(OC(=O)c3cc(O)c(O)c(O)c3)c2)[C@H](OC(=O)c2cc(O)c(O)c(OC(=O)c3cc(O)c(O)c(O)c3)c2)[C@@H](OC(=O)c2cc(O)c(O)c(OC(=O)c3cc(O)c(O)c(O)c3)c2)[C@@H]1OC(=O)c1cc(O)c(O)c(OC(=O)c2cc(O)c(O)c(O)c2)c1)c1cc(O)c(O)c(OC(=O)c2cc(O)c(O)c(O)c2)c1 [Tannic acid, tannic acid]
- effect on vector titre (HEK293T cells [3]): no measurable vector production

Molecule: CC(=O)O[C@@]12C[C@@H](C)[C@@]3(O)[C@@H](C=C(CO)C[C@]4(O)C(=O)C(C)=C[C@@H]34)[C@@H]1C2(C)C [prostratin, 12-Deoxyphorbol-13-acetate]
- effect on vector titre (HEK293T cells [3]): highest vector induction
- titre relative to the no-induction control (HEK293T cells [1]): approximately 4 fold
- increase of MFI from GFP FACS of transduced cells (HEK293T cells [1]; 16 μM prostratin at induction, residual 0.4 μM after 40-fold vector dilution): 26%
- MFI from GFP FACS of transduced cells (HEK293T cells [1]; 0.5 to 8 μM prostratin at induction): not observed to change
- optimum concentration for vector induction (HEK293T cells [1]; single agent, FIG. 4): 0.016 mM
- increase in vector titre (HEK293T cells [2]; 10 μM prostratin in combination with 10 mM sodium butyrate): 92%
- effect on induction of increasing prostratin from 1 to 10 μM (HEK293T cells [2]; throughout all the tested HDAC inhibitors, FIG. 6): positive enhancement of induction
- effect on titre of addition alongside HDACi (HEK1.65s cells [4]; prostratin 4-8 μM with HDACi, nearly all cases): increased titres
- increase of LV titre above optimum sodium butyrate (8 mM) alone (HEK1.65s cells [5]; 11 μM prostratin with 8 mM sodium butyrate, DOE model optimum): 1.93 fold and ~2 fold
- increase of GFP-HIV LV titres in combination with HDAC inhibitors (HEK1.65s cells [5]; Example 3 as summarised in Example 4, 24-well plate scale): ≥ 2 fold
- effect on titre in combination with sodium butyrate (HEK1.65s cells [5]; FIG. 8): marked positive effect on titre
- lowest concentrations causing an increase in titre (HEK1.65s cells [5]; in combination with sodium butyrate): 2 to 4 µM
- optimum predicted concentration of combined induction agents (HEK1.65s cells [5]): 11 µM
- increase in vector titre compared to the no induction control (HEK1.65s cells [5]; prostratin alone at 8-16 μM): ~13 fold and > 10 fold
- inducing effect relative to optimum sodium butyrate (HEK1.65s cells [5]; prostratin alone at 8-16 μM): approximately half the inducing effect of optimum sodium butyrate concentrations
- Cell Viability (%) (HEK1.65s cells [6]; 2 μM prostratin, condition 3, vector production period of 48 hours): 79.4%
- Δ (cell viability vs No Induction Control) (HEK1.65s cells [6]; 2 μM prostratin, condition 3): +0.6
- Cell Viability (%) (HEK1.65s cells [6]; 16 μM prostratin, condition 9, vector production period of 48 hours): 82.2%
- Δ (cell viability vs No Induction Control) (HEK1.65s cells [6]; 16 μM prostratin, condition 9): +3.4
- Cell Viability (%) (HEK1.65s cells [6]; 32 μM prostratin, condition 45, vector production period of 48 hours): 79.8%
- Δ (cell viability vs No Induction Control) (HEK1.65s cells [6]; 32 μM prostratin, condition 45): +1
- effect on cell viability (HEK1.65s cells [6]; prostratin 2-32 μM, vector production period of 48 hours): did not present any further loss in cell viability; also recorded: little cytotoxic effect; also recorded: no decrease in cell viability
- vector titre relative to induction with sodium butyrate alone (HEK1.65s cells [7]): 2.4- to 2.9 fold
- effect of residual prostratin on titres from the integration assay (HEK1.65s cells [8]): identical titres
- titres of MSD-mutated LV with Prostratin and 256U1 applied together ([9]; 11 μM Prostratin + 256U1 co-transfection, versus standard LV without inducers): higher that standard LV production titres; also recorded: increased higher than standard SIN-LV vectors
- increase in titres of MSD-mutated LV vectors ([9]; 11 μM Prostratin added at the sodium butyrate step, HIV-MSD2KOm5-EFS-GFP or -EF1a-GFP, FIG. 15): 5-10 fold
- effect on titres of MSD-mutated and standard SIN-LV [9, 14]: boosted titres
- titre increase compared to standard production control, CAR #1 vector (HEK1.65s cells [10]; [15]): 125 fold
- titre increase compared to standard production control, CAR #2-T2A-GFP vector (HEK1.65s cells [10]; [15]): 4.5 fold
- titre increase compared to standard production control, CAR #2 vector (HEK1.65s cells [10]; [15]): 7.9 fold
- titre increase compared to standard production control, CAR #1 vector (HEK1.65s cells [10]; [16]): 24 fold
- titre increase compared to standard production control, CAR #2-T2A-GFP vector (HEK1.65s cells [10]; [16]): 2 fold
- titre increase compared to standard production control, CAR #2 vector (HEK1.65s cells [10]; [16]): 2.6 fold
- increase in EIAV-CMV-GFP titre compared to the control titre (HEK1.65s cells [11]; [14]): 2 fold
- EIAV-CMV-GFP vector titre at harvest (HEK1.65s cells [11]; 11 μM prostratin with 10 mM sodium butyrate at induction): 9.1E+05 TU/mL
- induction of GFP transgene expression from constitutive promoters [12]: induction of expression from the promoters; also recorded: clear induction

Molecule: CCCC(=O)[O-].[Na+] [sodium butyrate]
- concentration giving optimum vector production (HEK293T cells [3]): 5 mM
- inducing effect on LV titre among HDAC inhibitors (HEK1.65s cells [4]): highest LV titres
- optimum predicted concentration of combined induction agents (HEK1.65s cells [5]): 8000 µM
- Cell Viability (%) (HEK1.65s cells [6]; 10 mM sodium butyrate, condition 35, vector production period of 48 hours): 74.8%
- Δ (cell viability vs No Induction Control) (HEK1.65s cells [6]; 10 mM sodium butyrate, condition 35): −4
- loss in cell viability (HEK1.65s cells [6]; sodium butyrate treated cells, vector production period of 48 hours): 4%

Molecule: CCCC(CCC)C(=O)[O-].[Na+] [sodium valproate]
- concentration giving optimum vector production (HEK293T cells [3]): 10 mM
- optimum concentration for vector induction (HEK293T cells [1]; single agent, FIG. 4): 10 mM
- inducing effect on LV titre among HDAC inhibitors (HEK1.65s cells [4]): some inducing effect

Molecule: CCCCC(=O)O [valeric acid]
- concentration giving optimum vector production (HEK293T cells [3]): 20 mM
- optimum concentration for vector induction (HEK293T cells [1]; single agent, FIG. 4): 10 mM
- inducing effect on LV titre among HDAC inhibitors (HEK1.65s cells [4]): some inducing effect

B1: 256U1: modified U1 snRNA targeting nt256-270 (SL1 loop) of the HIV-1 packaging signal; expression construct SEQ ID NO: 22 (nucleic acid)
DNA: TAAGGACCAGCTTCTTTGGGAGAGAACAGACGCAGGGGCGGGAGGGAAAAAGGGAGAGGCAGACGTCACTTCCCCTTGGCGGCTCTGGCAGCAGATTGGTCGGTTGAGTGGCAGAAAGGCAGACGGGGACTGGGCAAGGCACTGTCGGTGACATCACGGACAGGGCGACTTCTATGTAGATGAGGCAGCGCAGAGGCTGCTGCTTCGCCACTTGCTGCTTCACCACGAAGGAGTTCCCGTGCCCTGGGAGCGGGTTCAGGACCGCTGATCGGAAGTGAGAATCCCAGCTGTGTGTCAGGGCTGGAAAGGGCTCGGGAGTGCGCGGGGCAAGTGACCGTGTGTGTAAAGAGTGAGGCGTATGAGGCTGTGTCGGGGCAGAGGCCCAAGATCTCATTTGCCGTGCGCGCTTGCAGGGGAGATACCATGATCACGAAGGTGGTTTTCCCAGGGCGAGGCTTATCCATTGCACTCCGGATGTGCTGACCCCTGCGATTTCCCCAAATGTGGGAAACTCGACTGCATAATTTGTGGTAGTGGGGGACTGCGTTCGCGCTTTCCCCTGGTTTCAAAAGTAGACTGTACGCTAAGGGTCATATCTTTTTTTGTTTTGGTTTGTGTCTTGGTTGGCGTCTTAAATGTTAA
modifications: DNA-based expression constructs for the modified U1 snRNAs
- titre increase compared to standard production control, CAR #1 vector (HEK1.65s cells [10]; [16]): 46 fold
- titre increase compared to standard production control, CAR #2-T2A-GFP vector (HEK1.65s cells [10]; [16]): 2.7 fold
- titre increase compared to standard production control, CAR #2 vector (HEK1.65s cells [10]; [16]): 2.5 fold
- effect on lentiviral vector titres (HEK293T cells [13]): capable of increasing lentiviral vector titres
